Measurements published in US10934253B2, “Therapeutic compounds and methods” (UNIVERSITY OF TASMANIA, priority 2017, dated 2021).

What was measured:
Type in all cases: cell-based
HepG2 cells [1] = assay: Cell viability in the presence of a mitochondrial inhibitor (rotenone 10 μM); details: Homo sapiens, read-out: CELL VIABILITY [%]
Method: (§1) Cytoprotection of HepG2 cells by naphthoquinones was quantified in the presence of the mitochondrial toxin, rotenone. Briefly, HepG2 cells were seeded in 96-well plates at 5000 cells/well in DMEM with 0.3 g/l glucose, 10% FBS and Penicillin-Streptomycin-Glutamine. After overnight incubation under standard conditions, cells were treated with the test compounds (10 μM) for 2 days before cells were challenged with 1 μM rotenone in the presence of 10 μM test compounds in Hank's balanced salt solution (HBSS) for 6 hours. This was followed by post-incubation for an additional 18 hours with only 10 μM test compounds in HBSS. For measurement of cell viability, cells were washed with 100 μL PBS twice and then lysed using 40 μL lysis solution (4 mM EDTA, 0.2% Triton X-100) for 5 min at room temperature (RT) on an orbital shaker at 200 rpm. Then 10 μL of the lysate was mixed with 90 μL of enzyme-substrate mixture (as described above) in a white 96 well plate and luminescence was measured immediately using a plate-reader (Fluoroscan Ascent, Thermo Scientific). The data is expressed as % viability compared to the untreated (no-rotenone) control.
The cytoprotective effects of representative compounds of Formula (I) were further examined in vitro in response to rotenone toxicity at (10 μM). […] Cells were treated with the representative compounds of Formula (I) compounds (10 μM) for 2 days before cells were challenged with 10 μM rotenone.
Vitamin K, Menadione and Idebenone were used as comparative controls.

HepG2 cells [2] = assay: Acute ATP rescue assay (impaired mitochondrial function, rotenone); details: Homo sapiens, 1 h; HepG2; 1 μM quinones with rotenone 10 μM, 60 minutes, glucose-free DMEM; % ATP compared to untreated (no-rotenone) control
Method: HepG2 cells were seeded at a density of 5000 cells per well in a 96-well plate and incubated for 24 hours in DMEM with 0.3 g/l glucose, 10% FBS and Penicillin-Streptomycin-Glutamine. Cells were treated with 1 μM quinones in presence or absence of rotenone (10 μM), for 60 minutes in glucose-free DMEM ATP levels were quantified using luminescence from the ATP-dependent enzymatic oxidation of luciferin by luciferase. Cells were lysed in a volume of 40 μl (4 mM EDTA, 0.2% Triton X-100) for five minutes at room temperature (RT) on an orbital shaker at 200 rpm. […] Luminescence was quantified immediately using a multimode plate reader (Fluoroscan Ascent, Thermo Scientific). ATP levels were standardized to protein levels using a commercial BCA assay (Protein DC; BioRad) and changes were calculated as percentage relative to levels of DMSO-treated control cells. Data is expressed as % ATP compared to the untreated (no-rotenone) control.
Vitamin K, menadione and idebenone were used as comparative controls. DMSO was used as a control.

HepG2 cells [3] = assay: Rescue of cell viability in the presence of a mitochondrial inhibitor (rotenone 1 μM); details: Homo sapiens, HepG2
Method: as §1
The extent of protection of cellular viability against a rotenone challenge of representative compounds of Formula (I) is shown below in Table 5. Vitamin K, Menadione and Idebenone were used as comparative controls. DMSO was used as a control.

HepG2 cells [4] = assay: Extracellular lactate levels, enzyme-linked colorimetric assay; details: HepG2 culture medium; for Extracellular lactate [% control]: 25 mM glucose, supernatant after 48 h, standardized to protein
Method: Lactate concentrations in culture medium were determined by an enzyme-linked colorimetric assay. Briefly, 150,000 HepG2 cells were seeded in normal growth media (DMEM, 10% FCS, Pen/Strep) in each well of a 6-well plate (Life Science, USA) and incubated for 24 h. The media was replaced with growth media containing (25 mM glucose,) with and without test compounds. Three untreated wells containing only cells were considered the experimental baseline control and all compounds were tested in three different wells simultaneously. Supernatants were collected after 48 h and transferred into 96-well format. After the addition of 90 μl of reaction buffer (10 mM KH2PO4 pH 7.8, 1 mg/ml BSA, 0.5 mM PMS, 2 mM EDTA, 0.6 mM DCPIP, 0.8 mM NAD+, 5 U/ml glutamate-pyruvate-transaminase, 1.5 mM glutamate, 12.5 U/ml lactate dehydrogenase) the plate was incubated at 30° C. inside a multimode plate reader (Multiscan Go, Thermo Scientific) and absorbance was measured at 600 nm over a period of 100 minutes. A standard curve was generated using media spiked with known lactate concentrations. Finally, protein levels were quantified and the lactate concentration of each well was standardized to its protein content and was then expressed as % of control.
The extent of lactate reduction in the cell culture media by the test compounds of the subject invention and the Comparative Compounds vitamin K, menadione and idebenone is shown below in Table 6.

SMILES	viability at 10 µM (HepG2 cells [1]; HepG2, 48 h) [%]	activity at 1 µM (HepG2 cells [2]) [%]	viability at 10 µM (HepG2 cells [3]) [%]	also measured
COC(=O)C(Cc1ccccc1)NC(=O)CCCC1=C(C)C(=O)c2ccccc2C1=O (stereo in doubt) [UTA #35, (R)-methyl-2(4-(3-methyl-1,4-naphthoquinone-2-yl)butamido)-3-phenylpropanoate]	76.2			
COC1=C(OC)C(=O)C(CCCCCCCCCCO)=C(C)C1=O [Idebenone, idebenone, reference compound]		81		viability at 10 µM (HepG2 cells [3]; 10 μM test compound 2 days, 1 μM rotenone challenge 6 hours, 18 hours post-incubation, % of untreated (no-rotenone) control, read-out: Viability [%]): 66.2%; viability at 10 µM (HepG2 cells [1]; 48 h, HepG2, compounds 10 uM for 2 days, then 10 μM rotenone challenge): 66.2%; Extracellular lactate [% control] (HepG2 cells [4]): 111.9 % control; Effect on lactate production (in words) (HepG2 cells [4]; comment on the lactate table): increase lactate concentrations
CCCCC1=C(C)C(=O)c2ccccc2C1=O [UTA #19]				Extracellular lactate [% control] (HepG2 cells [4]): 65.3 % control
COc1ccc(CC2=C(C)C(=O)c3ccccc3C2=O)cc1OC [UTA #20]				Extracellular lactate [% control] (HepG2 cells [4]): 78.6 % control
CCCCCCCC1=C(C)C(=O)c2ccccc2C1=O [UTA #21]				Extracellular lactate [% control] (HepG2 cells [4]): 75.6 % control
CC1=C(CCC2CCCC2)C(=O)c2ccccc2C1=O [UTA #22]				Extracellular lactate [% control] (HepG2 cells [4]): 73 % control
CC1=C(CCC(C)O)C(=O)c2ccccc2C1=O (stereo not shown) [UTA #24]	72.8			
CC1=C(CCCC(=O)N2CCC[C@H]2C(=O)OC(C)(C)C)C(=O)c2ccccc2C1=O [UTA #42, (S)-tert-butyl-1-(4-(3-methyl-1,4-naphthoquinone-2-yl)butanoyl)pyrrolidine-2-carboxylate]	64.7			
CC1=C(CCCC(=O)N2CCC[C@H]2C(=O)O)C(=O)c2ccccc2C1=O [UTA #43, (S)-1-(4-(3-methyl-1,4-naphthoquinone-2-yl)butanoyl)pyrrolidine-2-carboxylic Acid]	92.7		92.7	
CC1=C(CCCC(=O)NCC(=O)OC(C)(C)C)C(=O)c2ccccc2C1=O [UTA #47]	74.4			
CC1=C(CCCC(=O)N[C@@H](CC(C)C)C(=O)O)C(=O)c2ccccc2C1=O [UTA #54]	98.7		98.7	Extracellular lactate [% control] (HepG2 cells [4]): 79.1 % control
CC1=C(CCCC(=O)N[C@@H](Cc2ccc(O)cc2)C(=O)OC(C)(C)C)C(=O)c2ccccc2C1=O [UTA #55]	78.6	94.8		
CC1=C(CCCC(=O)N2CCC[C@H]2CO)C(=O)c2ccccc2C1=O [UTA #61, (S)-2-(4-(2-(hydroxymethyl)pyrrolidin-1-yl)-4-oxobutyl)-3-methyl-1,4-naphthoquinone]	101		101	
CC1=C(CCCC(=O)N[C@H](CO)Cc2ccccc2)C(=O)c2ccccc2C1=O [UTA #62, (S)—N-(1-hydroxy-3-phenylpropan-2-yl)-4-(3-methyl-1,4-naphthyoquinone-2-yl)butanamide]	93.1	91.2	93.1	
CC1=C(CCC(=O)N[C@@H](Cc2ccccc2)C(=O)OC(C)(C)C)C(=O)c2ccccc2C1=O [UTA #65]	60.1	91.1		
CC1=C(CCC(=O)N[C@@H](Cc2ccccc2)C(=O)O)C(=O)c2ccccc2C1=O [UTA #66]	66.9			Extracellular lactate [% control] (HepG2 cells [4]): 66 % control
CC1=C(CCCCC(=O)O)C(=O)c2ccccc2C1=O [UTA #67, 25-(3-methyl-1,4-naphthoquinone-2-yl)pentanoic acid]	74.9	97.1		Extracellular lactate [% control] (HepG2 cells [4]): 67.6 % control
CC1=C(CCCCCC(=O)O)C(=O)c2ccccc2C1=O [UTA #70]	66.8	91.8		Extracellular lactate [% control] (HepG2 cells [4]): 73.3 % control
CC1=C(CCCCC(=O)N[C@@H](Cc2ccccc2)C(=O)OC(C)(C)C)C(=O)c2ccccc2C1=O [UTA #71]	70.5	92.2		

SMILES	viability at 10 µM (HepG2 cells [1]; HepG2, 48 h) [%]	activity at 1 µM (HepG2 cells [2]) [%]	viability at 10 µM (HepG2 cells [3]) [%]	also measured
CC1=C(CCCCC(=O)N[C@@H](Cc2ccccc2)C(=O)O)C(=O)c2ccccc2C1=O [UTA #72]	90.7	84.8	90.7	
CC1=C(CCCC(=O)NCCc2c[nH]c3ccccc23)C(=O)c2ccccc2C1=O [UTA #73, N-(2-(1H-indol-3-yl)ethyl)-4-(3-methyl-1,4-naphthoquinone-2-yl)butanamide]	86.2	96.1	86.2	
CC1=C(CCCC(=O)NCCc2ccc(O)cc2)C(=O)c2ccccc2C1=O [UTA #74, N-(4-hydroxyphenethyl)-4-(3-methyl-1,4-naphthoquinone-2-yl)butanamide]	91.7	101	91.7	
CC1=C(CCCCCC(=O)N[C@@H](Cc2ccccc2)C(=O)OC(C)(C)C)C(=O)c2ccccc2C1=O [UTA #75]	61.4	95.4		
CC1=C(CCCCCC(=O)N[C@@H](Cc2ccccc2)C(=O)O)C(=O)c2ccccc2C1=O [UTA #76]	68.1			
CC1=C(CCCC(=O)N[C@@H](CO)Cc2ccccc2)C(=O)c2ccccc2C1=O [UTA #78]	80			
CC1=C(CCCC(=O)N[C@@H](CO)c2ccccc2)C(=O)c2ccccc2C1=O [UTA #80]	87.6		87.6	
CC1=C(CCCC(=O)N[C@H](CO)c2ccccc2)C(=O)c2ccccc2C1=O [UTA #81]	83.8		83.8	
CC1=C(CCCCCC(=O)N[C@H](CO)Cc2ccccc2)C(=O)c2ccccc2C1=O [UTA #84]	74.4	90.4		
CC1=C(CCCCC(=O)NCCc2ccc(O)cc2)C(=O)c2ccccc2C1=O [UTA #88]	91.8		91.8	
CC1=C(CCCCCC(=O)NCCc2ccc(O)cc2)C(=O)c2ccccc2C1=O [UTA #89]	85.2		85.2	
CCCCNC(=O)CCCC1=C(C)C(=O)c2ccccc2C1=O [UTA #91]	82		82	
COC(=O)[C@@H]1C[C@@H](O)CN1C(=O)CCCC1=C(C)C(=O)c2ccccc2C1=O [UTA #93]	74.4			
CC1=C(CCCC(=O)N[C@H](Cc2ccccc2)C(=O)O)C(=O)c2ccccc2C1=O [UTA #94]	71.7			
COC(=O)[C@@H](NC(=O)CCCC1=C(C)C(=O)c2ccccc2C1=O)c1ccccc1 [UTA #95]	86.1		86.1	
COC(=O)[C@H](NC(=O)CCCC1=C(C)C(=O)c2ccccc2C1=O)c1ccccc1 [UTA #97]	84.8		84.8	
O=C(CCCC1=CC(=O)c2ccccc2C1=O)NCCc1ccc(O)cc1 [UTA #113]	73.4			
O=C(CCCC1=CC(=O)c2ccccc2C1=O)N[C@H](CO)Cc1ccccc1 [UTA #115]	80.8		80.8	
O=C(CCCC1=CC(=O)c2ccccc2C1=O)N[C@@H](Cc1ccccc1)C(=O)O [UTA #117]	80.3		80.3	
